# Columns and labels:
# [1] = molecular target: T1, human recombinant CYP3A4 (Homo sapiens, UniProt P08684); assay: CYP3A4 inhibition, Vivid CYP450 blue screening kit with baculosomes; format: biochemical
# T1 construct: purchased Life Technologies P2858; host or cells: baculosomes (baculovirus-infected insect cell microsomes)
# Method: CYP3A4 inhibition assay was carried out by using Vivid® CYP450 Screening Kit from Life Technologies as recommended by the manufacturer (# P2858, Carlsbad, CA). This assay allows rapid measurement of interactions between drugs of interest and CYP enzymes based on their capability to inhibit the production of a fluorescent signal in reactions using CYP BACULOSOMES® Plus Reagents and specific Vivid® Substrates. Briefly, the assay was conducted in a 96-well assay plate. […] The final concentrations of 2.5, 5, 7.5, 10, 25, 50, 75, and 100 μM were achieved by diluting the stocks in 1X Vivid® CYP reaction buffer. […] For ethanol only experiment, 2.5, 5, […], 20, 30, and 50 mM final concentrations were used. The final concentration of acetonitrile in each reaction was 0.01% in 100 μl final reaction volume. The fluorescence was immediately measured using a microplate reader (Cytation™ 5 Cell Imaging Multi-Mode Reader, BioTek, VT) at the 415/460 nm excitation and emission wavelengths.
# The concentrations of all the drugs were quantified using Ab Sciex Analyst® software. Microsomal kinetic data were analyzed using Michaelis-Menten and exponential decay equations. CYP3A4 inhibition data were evaluated by fitting the values to dose-response inhibition and calculated IC50 values were reported. All graphs were plotted and two-tailed t-tests were performed wherever appropriate using GraphPad Prism 5.01 (GraphPad, San Diego, CA). Significant differences between more than two groups analyzed with one-way ANOVA followed by Dunnett’s multiple comparison tests using IBM SPSS […] version 20. A p value <0.05 was considered significant compared to respective controls. The original data and/or statistical analyses for Michaelis-Menten Kinetics, drug metabolism and half-life determination, inhibition studies, and ligand docking are provided in the supporting information (S1 file).
# [2] = system: CYP3A4; conditions: cited from earlier work
# T1 sequence (P08684 whole entry): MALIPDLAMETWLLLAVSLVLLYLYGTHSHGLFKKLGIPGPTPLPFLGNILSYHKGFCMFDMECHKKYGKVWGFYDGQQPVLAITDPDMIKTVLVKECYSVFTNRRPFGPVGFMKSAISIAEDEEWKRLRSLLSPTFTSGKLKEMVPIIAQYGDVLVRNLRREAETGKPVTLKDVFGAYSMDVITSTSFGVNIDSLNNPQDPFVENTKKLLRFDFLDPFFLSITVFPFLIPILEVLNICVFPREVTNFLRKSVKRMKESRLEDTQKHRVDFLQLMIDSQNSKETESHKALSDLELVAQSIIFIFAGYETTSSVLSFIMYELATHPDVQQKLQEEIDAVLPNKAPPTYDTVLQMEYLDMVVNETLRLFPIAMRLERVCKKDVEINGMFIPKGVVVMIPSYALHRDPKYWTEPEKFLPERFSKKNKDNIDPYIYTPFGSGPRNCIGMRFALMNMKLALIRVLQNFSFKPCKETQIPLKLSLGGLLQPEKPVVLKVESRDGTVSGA
smiles,measurement,setting,value
"CCO [EtOH, ethanol]",CYP3A4 activity (Fig 5 inset),[1]; EtOH 2.5 mM alone,102.61
same,CYP3A4 activity (Fig 5 inset),[1]; EtOH 5 mM alone,98.7735
same,CYP3A4 activity (Fig 5 inset),[1]; EtOH 10 mM alone,93.5305
same,CYP3A4 activity (Fig 5 inset),[1]; EtOH 20 mM alone,91.7899
same,CYP3A4 activity (Fig 5 inset),[1]; EtOH 30 mM alone,86.4404
same,CYP3A4 activity (Fig 5 inset),[1]; EtOH 50 mM alone,79.5554
same,inhibition of CYP3A4,[1]; ethanol only at 20 mM,~ 10%
CC(C)CN(C[C@@H](O)[C@H](Cc1ccccc1)NC(=O)O[C@H]1CCOC1)S(=O)(=O)c1ccc(N)cc1 [amprenavir],effect of ethanol exposure on the IC50 value,[2],significantly decreased
Cc1c(O)cccc1C(=O)N[C@@H](CSc1ccccc1)[C@H](O)CN1C[C@H]2CCCC[C@H]2C[C@H]1C(=O)NC(C)(C)C [nelfinavir],effect of ethanol exposure on the IC50 value,[2],significantly decreased

# Source: paper PMC4752462 (PLoS ONE, 2016)
